Measurements as given in patent publication US9051304B2, “Carboxamide compounds and their use as calpain inhibitors V” (AbbVie Deutschland GmbH & Co. KG, priority 2009, dated 2015).

What was measured:
Format in all cases: biochemical
[1] = target: T1, calpain-I isolated from human erythrocytes (Homo sapiens, UniProt P07384); test: Calpain I enzyme inhibition, kinetic fluorescence assay; conditions: apparent Ki from IC50 by Cheng-Prussoff; human erythrocyte calpain-I
T1 construct: calpain-I—isolated from human erythrocytes; purchased Calbiochem 208713; host or cells: human erythrocytes (tissue isolate)
T1 sequence (P07384 1-714): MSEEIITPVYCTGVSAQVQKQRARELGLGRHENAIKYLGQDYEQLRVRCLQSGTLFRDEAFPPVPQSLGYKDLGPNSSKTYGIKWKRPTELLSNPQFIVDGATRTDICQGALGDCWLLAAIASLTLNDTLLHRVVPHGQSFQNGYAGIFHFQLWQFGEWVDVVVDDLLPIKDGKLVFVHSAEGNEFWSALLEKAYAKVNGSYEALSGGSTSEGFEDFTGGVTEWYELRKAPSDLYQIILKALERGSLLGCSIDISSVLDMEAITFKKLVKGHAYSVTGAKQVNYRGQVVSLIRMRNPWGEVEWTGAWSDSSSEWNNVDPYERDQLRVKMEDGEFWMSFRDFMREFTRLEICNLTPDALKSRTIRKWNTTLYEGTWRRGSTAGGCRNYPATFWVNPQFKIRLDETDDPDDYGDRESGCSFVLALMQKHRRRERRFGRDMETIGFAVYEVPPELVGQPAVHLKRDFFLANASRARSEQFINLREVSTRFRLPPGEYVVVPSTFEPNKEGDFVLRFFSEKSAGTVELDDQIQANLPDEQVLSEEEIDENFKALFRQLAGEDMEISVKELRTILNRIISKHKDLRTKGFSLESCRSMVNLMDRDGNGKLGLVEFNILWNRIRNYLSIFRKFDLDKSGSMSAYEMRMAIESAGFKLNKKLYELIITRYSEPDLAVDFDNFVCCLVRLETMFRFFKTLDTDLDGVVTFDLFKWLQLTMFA
T1 sequence (P04632 1-268 partner): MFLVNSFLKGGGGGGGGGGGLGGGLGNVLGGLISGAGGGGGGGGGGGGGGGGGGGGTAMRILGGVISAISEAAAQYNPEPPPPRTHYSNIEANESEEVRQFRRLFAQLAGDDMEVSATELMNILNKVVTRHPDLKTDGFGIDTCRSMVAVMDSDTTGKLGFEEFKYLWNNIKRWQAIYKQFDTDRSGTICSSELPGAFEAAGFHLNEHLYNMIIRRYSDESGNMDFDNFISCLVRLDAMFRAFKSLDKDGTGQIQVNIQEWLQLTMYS
Experimental: (§1) I Enzyme Inhibition in vitro:
(§2) Testing for blockade of the corresponding enzymic activities was carried out by means of kinetic fluorescence assays (excitation 390 nm, emission 460 nm).
(§3) Apparent Ki values were calculated from the experimentally determined IC50 values by the Cheng-Prussoff relation assuming a reversible competitive enzyme inhibition.
20 nM calpain-I—isolated from human erythrocytes (Calbiochem #208713), 100 μM Suc-Leu-Tyr-AMC (Bachem #I-1355) as substrate in buffer with 62 mM imidazole, 0.3 mM CaCl2, 0.10% CHAPS, 0.05% BSA, 1 mM DTT at pH 7.3 and room temperature.

[2] = target: T2, cathepsin L isolated from human liver (Homo sapiens, UniProt P07711); test: Cathepsin L enzyme inhibition, kinetic fluorescence assay; conditions: selectivity ratio vs calpain
T2 construct: cathepsin L—isolated from human liver; purchased Calbiochem 219402; host or cells: human liver (tissue isolate)
Experimental: as §1, §2, §3
1 nM cathepsin L—isolated from human liver (Calbiochem #219402), 2 μM Z-Phe-Arg-AMC (Bachem #I-1160) as substrate in 50 mM MES, 2 mM EDTA, 0.05% Brij 35, 2.5 mM L-cysteine, pH 6.0, room temperature.

[3] = target: T3, cathepsin K activated from recombinant human procathepsin K (Homo sapiens, UniProt P43235); test: Cathepsin K enzyme inhibition, kinetic fluorescence assay; conditions: selectivity ratio vs calpain
T3 construct: purchased Calbiochem 342001; host or cells: E. coli
T3 sequence (P43235 115-329): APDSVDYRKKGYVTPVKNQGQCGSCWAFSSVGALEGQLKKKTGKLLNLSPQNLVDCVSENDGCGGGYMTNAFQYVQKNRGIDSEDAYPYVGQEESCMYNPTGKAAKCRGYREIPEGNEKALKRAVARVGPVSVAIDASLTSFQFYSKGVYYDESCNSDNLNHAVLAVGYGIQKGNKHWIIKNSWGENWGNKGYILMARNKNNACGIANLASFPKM
Experimental: as §1, §2, §3
3 nM cathepsin K—activated from recombinant human procathepsin K from E. coli (Calbiochem #342001), 10 μM Z-Gly-Pro-Arg-AMC (Biomol #P-142) as substrate in 50 mM MES, 2 mM EDTA, 0.05% Brij 35, 2.5 mM L-cysteine, pH 6.0, room temperature.

[4] = target: T4, cathepsin B isolated from human liver (Homo sapiens, UniProt P07858); test: Cathepsin B enzyme inhibition, kinetic fluorescence assay; conditions: selectivity ratio vs calpain
T4 construct: cathepsin B—isolated from human liver; purchased Calbiochem 219362; host or cells: human liver (tissue isolate)
Experimental: as §1, §2, §3
0.25 nM cathepsin B—isolated from human liver (Calbiochem #219362), 100 μM Z-Phe-Arg-AMC (Bachem #I-1160) as substrate 50 mM MES, 2 mM EDTA, 0.05% Brij 35, 2.5 mM L-cysteine, pH 6.0, room temperature.

[5] = target: T5, recombinant human cathepsin S (Homo sapiens, UniProt P25774); test: Cathepsin S enzyme inhibition, kinetic fluorescence assay; conditions: selectivity ratio vs calpain
T5 construct: purchased Calbiochem 219343; host or cells: E. coli
Experimental: as §1, §2, §3
0.5 nM recombinant human cathepsin S from E. coli (Calbiochem #219343), 20 μM Z-Val-Val-Arg-AMC (Bachem #I-1540) as substrate in 50 mM MES, 2 mM EDTA, 0.05% Brij 35, 2.5 mM L-cysteine, pH 6.0, room temperature.

T2 sequence (P07711 114-333): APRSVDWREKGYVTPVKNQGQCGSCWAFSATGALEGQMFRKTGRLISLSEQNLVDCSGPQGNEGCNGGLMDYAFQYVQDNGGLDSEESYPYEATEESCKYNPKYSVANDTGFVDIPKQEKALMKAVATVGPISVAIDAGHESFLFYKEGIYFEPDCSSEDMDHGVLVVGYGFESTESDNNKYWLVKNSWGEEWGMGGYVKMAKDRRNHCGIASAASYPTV
T5 sequence (P25774 115-331): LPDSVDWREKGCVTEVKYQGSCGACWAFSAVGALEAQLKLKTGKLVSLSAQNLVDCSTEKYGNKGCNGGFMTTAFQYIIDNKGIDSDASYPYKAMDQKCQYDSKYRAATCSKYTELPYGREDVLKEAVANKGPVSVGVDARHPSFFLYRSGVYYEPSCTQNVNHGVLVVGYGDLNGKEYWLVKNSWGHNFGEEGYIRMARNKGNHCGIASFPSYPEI

| SMILES | Ki [1] | also measured |
| --- | --- | --- |
| O=C(NOCCN1CCOCC1)C(=O)C(Cc1ccccc1)NC(=O)c1cccnc1-n1ccc(-c2ccccc2)n1 (stereo not drawn) [Example 22, N-(4-{[2-(4-Morpholinyl)ethoxy]amino}-3,4-dioxo-1-phenyl-2-butanyl)-2-(3-phenyl-1H-pyrazol-1-yl)nicotinamide] | 200 to 300 nM |  |
| CCCONC(=O)C(=O)C(Cc1ccccc1)NC(=O)c1cccnc1-n1ccc(-c2ccccc2)n1 (stereo not drawn) [Example 12, N-[3,4-Dioxo-1-phenyl-4-(propoxyamino)-2-butanyl]-2-(3-phenyl-1H-pyrazol-1-yl)nicotinamide] | < 200 nM |  |
| CONC(=O)C(=O)C(Cc1cccc(F)c1)NC(=O)c1cccnc1-n1ccc(-c2ccccc2)n1 (stereo not drawn) [Example 6, N-(1-(3-Fluorophenyl)-4-(methoxyamino)-3,4-dioxobutan-2-yl)-2-(3-phenyl-1H-pyrazol-1-yl)nicotinamide] | 200 to 300 nM |  |
| NC(=O)C(=O)C(Cc1ccccc1)NC(=O)c1cccnc1-n1ccc(-c2ccc(F)cc2)n1 (stereo not drawn) [28 (comp.), N-(3-Amino-1-benzyl-2,3-dioxopropyl)-2-[3-(4-fluorophenyl)-1H-pyrazol-1-yl]nicotinamide, reference compound] | < 200 nM |  |
| CONC(=O)C(=O)C(Cc1ccccc1)NC(=O)c1cccnc1-n1cc(F)c(-c2ccccc2)n1 (stereo not drawn) [Example 3, 2-(4-Fluoro-3-phenyl-1H-pyrazol-1-yl)-N-(4-(methoxyamino)-3,4-dioxo-1-phenylbutan-2-yl)nicotinamide] | < 200 nM |  |
| C=CCONC(=O)C(=O)C(Cc1ccccc1)NC(=O)c1cccnc1-n1ccc(-c2ccccc2)n1 (stereo not drawn) [Example 8, N-(4-(Allyloxyamino)-3,4-dioxo-1-phenylbutan-2-yl)-2-(3-phenyl-1H-pyrazol-1-yl)nicotinamide] | < 200 nM |  |
| CC(C)(C)CONC(=O)C(=O)C(Cc1ccccc1)NC(=O)c1cccnc1-n1ccc(-c2ccccc2)n1 (stereo not drawn) [Example 21, N-{4-[(2,2-Dimethylpropoxy)amino]-3,4-dioxo-1-phenyl-2-butanyl}-2-(3-phenyl-1H-pyrazol-1-yl)nicotinamide] | 200 to 300 nM | Sel cat. L (Ki(cathepsin L)/Ki(calpain) ratio) [2]: ∘; Sel cat. K (Ki(cathepsin K)/Ki(calpain) ratio) [3]: ∘; Sel cat. B (Ki(cathepsin B)/Ki(calpain) ratio) [4]: + (+ means 2≦Ki(cathepsin B)/Ki(calpain)≦4); Sel cat. S (Ki(cathepsin S)/Ki(calpain) ratio) [5]: + (+ means 5≦Ki(cathepsin S)/Ki(calpain)≦10) |
| CCONC(=O)C(=O)C(Cc1ccc(OC)cc1)NC(=O)c1cccnc1-n1ccc(-c2ccccc2)n1 (stereo not drawn) [Example 24, N-[4-(Ethoxyamino)-1-(4-methoxyphenyl)-3,4-dioxo-2-butanyl]-2-(3-phenyl-1H-pyrazol-1-yl)nicotinamid] | < 200 nM | Sel cat. L (Ki(cathepsin L)/Ki(calpain) ratio) [2]: ++ (++ means 10<Ki(cathepsin L)/Ki(calpain)≦50); Sel cat. K (Ki(cathepsin K)/Ki(calpain) ratio) [3]: + (+ means 2≦Ki(cathepsin K)/Ki(calpain)≦4); Sel cat. B (Ki(cathepsin B)/Ki(calpain) ratio) [4]: ++ (++ means 4<Ki(cathepsin B)/Ki(calpain)≦10); Sel cat. S (Ki(cathepsin S)/Ki(calpain) ratio) [5]: ++ (++ means 10<Ki(cathepsin S)/Ki(calpain)≦50) |
| O=C(NOC1CCCC1)C(=O)C(Cc1ccccc1)NC(=O)c1cccnc1-n1ccc(-c2ccccc2)n1 (stereo not drawn) [Example 17, N-{4-[(Cyclopentyloxy)amino]-3,4-dioxo-1-phenyl-2-butanyl}-2-(3-phenyl-1H-pyrazol-1-yl)nicotinamide] | 200 to 300 nM |  |
| O=C(NOCC1CC1)C(=O)C(Cc1ccccc1)NC(=O)c1cccnc1-n1ccc(-c2ccccc2)n1 (stereo not drawn) [Example 23, N-{4-[(Cyclopropylmethoxy)amino]-3,4-dioxo-1-phenyl-2-butanyl}-2-(3-phenyl-1H-pyrazol-1-yl)nicotinamide] | < 200 nM |  |
| CCONC(=O)C(=O)C(Cc1ccccc1)NC(=O)c1cccnc1-n1cc(F)c(-c2ccccc2)n1 (stereo not drawn) [Example 19, N-[4-(Ethoxyamino)-3,4-dioxo-1-phenyl-2-butanyl]-2-(4-fluoro-3-phenyl-1H-pyrazol-1-yl)nicotinamide] | < 200 nM |  |
| O=C(NOC1CCC1)C(=O)C(Cc1ccccc1)NC(=O)c1cccnc1-n1ccc(-c2ccccc2)n1 (stereo not drawn) [Example 20, N-{4-[(Cyclobutyloxy)amino]-3,4-dioxo-1-phenyl-2-butanyl}-2-(3-phenyl-1H-pyrazol-1-yl)nicotinamide] | < 200 nM |  |
| CONC(=O)C(=O)C(Cc1ccccc1)NC(=O)c1cccnc1-n1cc(C)c(-c2ccccc2)n1 (stereo not drawn) [Example 4, N-[4-(Methoxyamino)-3,4-dioxo-1-phenylbutan-2-yl]-2-(4-methyl-3-phenyl-1H-pyrazol-1-yl)pyridine-3-carboxamide] | 300 to 600 nM |  |
| CCONC(=O)C(=O)C(Cc1ccc(F)cc1)NC(=O)c1cccnc1-n1ccc(-c2ccccc2)n1 (stereo not drawn) [Example 18, N-[4-(Ethoxyamino)-1-(4-fluorophenyl)-3,4-dioxo-2-butanyl]-2-(3-phenyl-1H-pyrazol-1-yl)nicotinamide] | < 200 nM |  |
| CONC(=O)C(=O)C(Cc1ccccc1)NC(=O)c1cccnc1-n1ccc(-c2ccc(F)cc2)n1 (stereo not drawn) [Example 1, 2-[3-(4-Fluorophenyl)-1H-pyrazol-1-yl]-N-[4-(methoxyamino)-3,4-dioxo-1-phenylbutan-2-yl]pyridine-3-carboxamide] | 200 to 300 nM |  |
| CONC(=O)C(=O)C(Cc1ccc(F)cc1)NC(=O)c1cccnc1-n1ccc(-c2ccccc2)n1 (stereo not drawn) [Example 5, N-(1-(4-Fluorophenyl)-4-(methoxyamino)-3,4-dioxo-butan-2-yl)-2-(3-phenyl-1H-pyrazol-1-yl)nicotinamide] | 300 to 600 nM |  |
| CONC(=O)C(=O)C(Cc1ccccc1)NC(=O)c1cccnc1-n1ccc(-c2ccccc2F)n1 (stereo not drawn) [Example 25, 2-[3-(2-Fluorophenyl)-1H-pyrazol-1-yl]-N-[4-(methoxyamino)-3,4-dioxo-1-phenyl-2-butanyl]nicotinamide] | < 200 nM |  |
| CC(C)ONC(=O)C(=O)C(Cc1ccccc1)NC(=O)c1cccnc1-n1ccc(-c2ccccc2)n1 (stereo not drawn) [Example 11, N-[4-(Isopropoxyamino)-3,4-dioxo-1-phenyl-2-butanyl]-2-(3-phenyl-1H-pyrazol-1-yl)nicotinamide] | < 200 nM |  |
| CONC(=O)C(=O)C(Cc1ccccc1)NC(=O)c1cccnc1-n1ccc(-c2ccccc2)n1 (stereo not drawn) [Example 2, N-(4-(Methoxyamino)-3,4-dioxo-1-phenylbutan-2-yl)-2-(3-phenyl-1H-pyrazol-1-yl)nicotinamide] | < 200 nM |  |
